Measurements from patent publication US20150133431A1, “GGA DERIVATIVES” (COYOTE PHARMACEUTICALS, INC., priority 2013, published 2015).

Assays:
[1] = in certain situations; Katsuno et al., PNAS 2003; cited from earlier work
cells = assay: cytoprotective effects on cells, GGA isomers; assay type: cell-based
Description: The isolated cis- and trans-compounds described herein are also useful in assays which access a compound having putative cytoprotective effects. In particular, in such assays, the cis-isomer of GGA will behave as baseline or negative control and the trans-isomer as a positive control. The putative compound is tested in the assay described variously herein and its activity correlated against the cis- and trans-isomers. […] Accordingly, the cis-isomer finds utility as a negative control in the assay.

## CC(=O)CC/C=C(\C)CC/C=C(\C)CC/C=C(\C)CCC=C(C)C [GGA, Geranylgeranyl acetone]
[1]
  concentration of GGA required to exert a cytoprotective effect: more than 600 mg per kg per day

## CC(=O)CC/C=C(/C)CC/C=C(\C)CC/C=C(\C)CCC=C(C)C [cis-isomer, 5Z,9E,13E-Geranylgeranyl acetone]
cells; increasing amounts of the cis-isomer
  effect of increasing amounts of cis-isomer on activity of trans-isomer: antagonize the activity of the trans-isomer

## CC(=O)CC/C=C(\C)CC/C=C(\C)CC/C=C(\C)CCC=C(C)C [trans-isomer of GGA, 5E,9E,13E-Geranylgeranyl acetone]
cells; comparison of isomers
  cytoprotective efficacy compared with 1:2 to 1:3 cis:trans mixture of GGA and cis-isomer alone: more efficacious at lower concentrations
